In US6875578B2, “System for cell-based screening” (priority 1997, dated 2005):
“Also recorded” adds a separate entry of the source.

Legend:
[1] = tested on: p38 MAPK and NF-κB pathways; experiment: Dual labeling assay of the p38 MAPK and NF-κB pathways; assay type: cell-based; conditions: added alone; two different cell types
Source text: The assay we present here measures, as one of its parameters, p38 activation using immunolocalization of the phosphorylated form of p38 in toxin-treated cells. The assay was developed to be flexible enough to include the simultaneous measurement of other parameters within the same individual cells. Because the signal transduction pathway mediated by the transcription factor NF-κB is also known to be involved in the cell stress response, we included the activation of NF-κB as a second parameter in the same assay.
Multiple cell types, model toxins, and antibodies were tested, and significant stimulation of both pathways was measured in a high-content mode. The phospho-p38 antibodies used in this study were purchased from Sigma Chemical Company (St. Louis, Mo.). We report that at least two cell stress signaling pathways can not only be measured simultaneously, but are differentially responsive to classes of model toxins.

[2] = tested on: microtubule arrays (tubulin-GFP chimera); experiment: Microtubule disruption assay, LLCPK cells with tubulin-GFP biosensor; assay type: cell-based, pig; conditions: 10-500 nM, 12 hour time point
Method: For microtubule disruption assays, LLCPK cells stably transfected with a tubulin-GFP biosensor plasmid were plated on 96 well cell culture dishes at 50-60% confluence and cultured overnight at 37° C., 5% CO2. […] The cells were then observed with the cell screening system described above, at a 12 hour time point.

L929 cells [3] = experiment: Apoptosis nuclear morphology, L929 cells; assay type: cell-based, mouse; conditions: 30 hours
Method: (§1) Cells were plated into 96-well plates at densities of 3×10^3 to 1×10^4 cells/well. The following day apoptotic inducers were added at indicated concentrations and cells were incubated for indicated time periods (usually 16-30 hours). The next day medium was removed and cells were stained with 5 μg/ml Hoechst (Molecular Probes, Inc.) in fresh medium and incubated for 30 minutes at 37° C. Cells were washed in Hank's Balanced Salt Solution (HBSS) and fixed with 3.7% formaldehyde in HBSS at room temperature. Cells were washed 2×with HBSS at room temperature and the plate was sealed.
(§2) Quantitation of changes in nuclear morphology upon induction of apoptosis was accomplished by (1) measuring the effective size of the nuclear region; and (2) measuring the degree of convolution of the perimeter.

BHK cells [4] = experiment: Apoptosis nuclear morphology, BHK cells; assay type: cell-based; conditions: 30 hours
Method: as §1, §2

MCF-7 cells [5] = experiment: Apoptosis nuclear morphology, MCF-7 cells; assay type: cell-based; conditions: 30 hours
Method: as §1, §2

L929 cells [6] = experiment: Apoptosis actin reorganization (f-actin content), L929 cells; assay type: cell-based, mouse; conditions: 30 hours
Method: (§3) Cells were plated in 96-well plates at densities of 3×10^3 to 1×10^4 cells/well. The following day apoptotic inducers were added at indicated concentrations. Cells were incubated for the indicated time periods (usually 16-30 hours). The next day the medium was removed and cells were stained with 5 μg/ml Hoechst (Molecular Probes, Inc.) in fresh medium and incubated for 30 minutes at […]. Cells were washed in HBSS and fixed with 3.7% formaldehyde in HBSS at room temperature. Plates were washed with HBSS and permeabilized with 0.5% v/v Triton X-100 in HBSS at room temperature. Plates were washed in HBSS and stained with 100 μl of 1 U/ml of Alexa 488 Phalloidin stock (100 μl/well, Molecular Probes, Inc.). Cells were washed 2×with HBSS at RT and the plate was sealed.
(§4) Quantitation of f-actin content was accomplished by measuring the intensity of phalloidin staining around the nucleus. This was determined to be a reasonable approximation of a full cytoplasmic average of the intensity. The mask used to approximate this cytoplasmic measure was derived from the nuclear mask defined by the Hoechst stain. Derivation was accomplished by combinations of erosions and dilations.

BHK cells [7] = experiment: Apoptosis actin reorganization (f-actin content), BHK cells; assay type: cell-based; conditions: 30 hours
Method: as §3, §4

MCF-7 cells [8] = experiment: Apoptosis actin reorganization (f-actin content), MCF-7 cells; assay type: cell-based; conditions: 30 hours
Method: as §3, §4

L929 cells [9] = experiment: Apoptosis mitochondrial mass/potential, L929 cells; assay type: cell-based, mouse; conditions: 30 hours
Method: (§5) Cells were plated into 96-well plates at densities of 3×10^3 to 1×10^4 cells/well. The following day apoptotic inducers were added at the indicated concentrations and cells were incubated for the indicated time periods (usually 16-30 hours). Cells were stained with 5 μg/ml Hoechst (Molecular Probes, Inc.) and 750 nM MITOTRACKER™ Red (CMXRos, Molecular Probes, Inc.) in fresh medium and incubated for 30 minutes at 37° C. Cells were washed in HBSS and fixed with 3.7% formaldehyde in HBSS at room temperature. Plates were washed with HBSS and permeabilized with 0.5% v/v TRITON™ X-100 in HBSS at room temperature. Cells were washed 2× with HBSS at room temperature and the plate was sealed. For dual labeling of mitochondria, cells were treated with 200 nM MITOTRACKER™ Green and 200 nM MITOTRACKER™ Red for 0.5 hours before fixation.
(§6) The mitochondrial membrane potential is measured by labeling mitochondria with both MITOTRACKER™ Green FM and MITOTRACKER™ Red (Molecular Probes, mc). MITOTRACKER™ Red labeling is proportional to both mass and membrane potential. MITOTRACKER™ Green FM labeling is proportional to mass. The ratio of MITOTRACKER™ Red signal to the MITOTRACKER™ Green FM signal provides a measure of mitochondrial membrane potential (Poot and Pierce, 1999). This ratio normalizes the […]. […]

BHK cells [10] = experiment: Apoptosis mitochondrial mass/potential, BHK cells; assay type: cell-based; conditions: 30 hours
Method: as §5, §6

MCF-7 cells [11] = experiment: Apoptosis mitochondrial mass/potential, MCF-7 cells; assay type: cell-based; conditions: 30 hours
Method: as §5, §6

caspase-3 [12] = experiment: Caspase-3 biosensor apoptosis assay, MCF-7 cells; assay type: cell-based; conditions: MCF-7 cells
Method: (§7) For DNA transfection, BHK cells and MCF-7 cells were cultured to 50-70% confluence in 6 well plates containing 3 ml of minimal Eagle's medium (MEM) with 10% fetal calf serum, 1 mM L-glutamine, 50 μg/ml streptomycin, 50 μg/ml penicillin, 0.1 mM non-essential amino acids, 1 mM sodium pyruvate and 10 μg/ml of bovine insulin (for MCF-7 cell only) at 37° C. in a 5% CO2 incubator for about 36 hours. The cells were washed with serum free MEM media and incubated for 5 hours with 1 ml of transfection mixture containing 1 μg of the appropriate plasmid and 4 μg of lipofectimine (BRL) in the serum free MEM media. Subsequently, the transfection medium was removed and replaced with 3 ml of normal culture media. The transfected cells were maintained in growth medium for at least 16 hours before performing selection of the stable cells based on standard molecular biology methods (Ausubel. et al 1995).
For apoptosis assays, the cells (BHK, MCF-7) stably transfected with the appropriate protease biosensor expression vector were plated on tissue culture treated 96-well plates at 50-60% confluence and cultured overnight at 37° C., 5% CO2. Varying concentrations of cis-platin, staurosporine, or paclitaxel in normal culture media were freshly prepared from stock and added to cell culture dishes to replace the old culture media. The cells were then observed with the cell screening system of the present invention at the indicated time points either as live cell experiments or as fixed end-point experiments.
This biosensor is restricted to the cytoplasm by the reactant target sequence. The reactant target sequence is the annexin II cytoskeletal binding domain ([…]) (SEQ ID NO:124) (FIG. 29C) (Eberhard et al. 1997. Mol. Biol. Cell 8:293a). The enzyme recognition site corresponds to two copies of the amino acid sequence DEVD (SEQ ID NO:60) (FIG. 29B), which serves as the recognition site of caspase-3. […]
(§8) The biosensor response is measured by quantitating the effective cytoplasm-to-nuclear translocation of the signal (see above). […]

NF-κB [13] = experiment: NF-κB immunolocalization in toxin treated 3T3 cells; assay type: cell-based
Source text: (§9) For further studies, we characterized endogenous NF-κB activation by immunolocalization in toxin treated cells. The NF-κB antibodies used in this study were purchased from Santa Cruz Biotechnology, Inc. (Santa Cruz, Calif.), and secondary antibodies are from Molecular Probes (Eugene, Oreg.).
(§10) For the 3T3 and SNB19 cell types, we determined the effective concentrations that yield response levels of 50% of the maximum (EC50), expressed in units of mass per volume (ng/ml) and units of molarity. Based on molecular weights of 17 kD for both TNFα and IL-1α, the EC50 levels for these two compounds with 3T3 and SNB19 cell types are given in units of molarity in Table 1.
(§11) For these experiments, either 10 or 100 TNFα-treated 3T3 or SNB19 cells/well were tested. On the basis of the standard deviations measured for these samples, and by taking t-values for the student's t-test, we have estimated the minimum detectable doses for each case of cell type, compound, number of cells per well, and for different choices of how many wells are sampled per condition. The latter factor determines the number of degrees of freedom that are provided in the sample of data. Increasing the number of wells from 4 to 16, and increasing the number of cells per well from 10 to 100, improves the minimum detectable doses considerably. […] If the false positive rate is relaxed to 20%, a concentration of approximately half that value can be detected (0.83 ng/ml). One hundred cells can conveniently be sampled over a cell culture surface area of less than 1 mm^2.

NF-κB [14] = experiment: NF-κB immunolocalization in toxin treated SNB19 cells; assay type: cell-based; conditions: based on molecular weights of 17 kD, read-out: EC50 (NF-κB activation)
Source text: as §9, §10
as §11, with “data.” for “data. Increasing the number of wells from 4 to 16, and increasing the number of cells per well from 10 to 100, improves the minimum detectable doses considerably.”, “One hundred cells can conveniently be sampled over a cell culture surface area of less than 1 mm^2.” left out

caspase-3 [15] = conditions: MCF-7 cells; accompanied by cleavage of PARP; cited from earlier work
caspase-3 [16] = experiment: Caspase-3 biosensor apoptosis assay, BHK cells; assay type: cell-based; conditions: BHK cells transfected with the caspase 3 biosensor
Method: as §7
For apoptosis assays, the cells (BHK, MCF-7) stably transfected with the appropriate protease biosensor expression vector were plated on tissue culture treated 96-well plates at 50-60% confluence and cultured overnight at 37° C., 5% CO2. […]
as §8

For `COc1ccc(C[C@H]2NC[C@H](O)[C@H]2OC(C)=O)cc1` [Anisomycin], the “differential response of the p38 MAPK and NF-κB pathways” value (“differential response” for short) [1] was “activators of specific pathways”.
For `COC(=O)Nc1nc2ccc(C(=O)c3cccs3)cc2[nH]1` [Nocodazole], the “Response of microtubule arrays” value [2] was “Destabilization”.
With `CN[C@@H]1C[C@H]2O[C@@](C)([C@@H]1OC)n1c3ccccc3c3c4c(c5c6ccccc6n2c5c31)C(=O)NC4` [staurosporine] the “change in nuclear morphology” value (L929 cells [3]) was “dose-dependent change in nuclear morphology”, the “change in nuclear morphology” value (L929 cells [3]; listed as Staurosporine) was “classic nuclear fragmentation” and the “change in nuclear morphology” value (BHK cells [4]) was “concentration dependent changes”. The “change in nuclear morphology” value (BHK cells [4]; listed as Staurosporine) was “nuclear condensation at lower doses and nuclear fragmentation at higher doses”, the “change in nuclear morphology” value (MCF-7 cells [5]) was “nuclear condensation” and the “change in peri-nuclear f-actin content” value (L929 cells [6]) was “dose-dependent increases in f-actin content”. The “change in peri-nuclear f-actin content” value (L929 cells [6]; listed as Staurosporine) was “induced increases in f-actin”, the “change in peri-nuclear f-actin content” value (BHK cells [7]) was “dose-dependent increase in f-actin” and the “change in peri-nuclear f-actin content” value (BHK cells [7]; listed as Staurosporine) was “induced increases in f-actin”. For the same molecule, the “change in peri-nuclear f-actin content” value (MCF-7 cells [8]) was “either a decrease or increase depending on the concentration of staurosporine”, the “change in peri-nuclear f-actin content” value (MCF-7 cells [8]; listed as Staurosporine) was “concentration-dependent response” and the “mitochondrial changes (mass / membrane potential)” value (L929 cells [9]) was “clear increase in mitochondrial mass; also recorded: increases in mitochondrial mass”. The “mitochondrial changes (mass / membrane potential)” value (BHK cells [10]) was “either a decrease in membrane potential at lower concentrations of staurosporine, or an increase in mass at higher concentrations of staurosporine; also recorded: increases in mitochondrial mass”, the “mitochondrial changes (mass / membrane potential)” value (MCF-7 cells [11]) was “consistent decrease in mitochondrial membrane potential; also recorded: a decrease in membrane potential” and the “magnitude of caspase activation relative to comparator” value (caspase-3 [12]; maximum magnitude) was “approximately one-half that demonstrated with cis-platin in BHK cells”.
For `CC[C@]1(O)C[C@@H]2CN(CCc3c([nH]c4ccccc34)[C@@](C(=O)OC)(c3cc4c(cc3OC)N(C)[C@H]3[C@@](O)(C(=O)OC)[C@H](OC(C)=O)[C@]5(CC)C=CCN6CC[C@]43[C@@H]65)C2)C1` [Vinblastine], the “Response of microtubule arrays” value [2] was “Destabilization”.
In the case of “IL-1α: model toxin, molecular weight 17 kD”, the “EC50 (NF-κB activation)” value (NF-κB [13]; based on molecular weights of 17 kD) is reported as 0.24 10^−12 moles/liter, the EC50 (NF-κB [14]) is reported as 59 pM and the “differential response” value [1] is reported as “activators of specific pathways”.
In the case of `COc1cc([C@@H]2c3cc4c(cc3[C@@H](O[C@@H]3O[C@@H]5CO[C@@H](C)O[C@H]5[C@H](O)[C@H]3O)[C@H]3COC(=O)[C@H]23)OCO4)cc(OC)c1O` [etoposide], the “Caspase-3 activity with the caspase biosensor” value (caspase-3 [12]; 15 h treatment with 100 μM etoposide) is listed as “not detected” and the “time of peak response in caspase-3 activity after stimulation” value (caspase-3 [15]) is listed as 6 h.
In the case of tumor necrosis factor [TNFα], the “EC50 value (NF-κB activation)” value (NF-κB [13]) is reported as 0.15 ng/mL, the EC50 (NF-κB [13]; based on molecular weights of 17 kD, read-out: EC50 (NF-κB activation)) is reported as 8.8 pM and the EC50 (NF-κB [14]) is reported as 5.9 pM. For the same molecule, the “differential response” value [1] was “activators of specific pathways”.
For `N.N.[Cl][Pt][Cl]` [cis-platin], the “caspase activation reported by the biosensor” value (caspase-3 [16]) was “accumulation of fluorescence in the nucleus”.
For `C=CC[C@@H](CC/C(C)=C/C=C/CC/C=C\[C@@H]1CSC([C@@H]2C[C@@H]2C)=N1)OC` [Curacin A], the “Response of microtubule arrays” value [2] was “Destabilization”.
